Measured values as given in publication PMC12775434, “Ultra-large virtual screening unveils potent agonists of the neuromodulatory orphan receptor GPR139” (Nature Communications, 2025).
Where “and” joins values, the source holds several entries; their conditions need not be identical. Equal entries are not always repeated. Where two headings read alike, the source gives them in different places.

Tests used:
GPR139 [1] = molecular target: T1, GPR139 (Homo sapiens, UniProt Q6DWJ6); assay: Ca2+ mobilization assay, antagonist mode (EC80 800 nM Lundbeck Cmp 1a after 20 min preincubation), GPR139-CHOk1; type: cell-based
T1 sequence (Q6DWJ6 1-353): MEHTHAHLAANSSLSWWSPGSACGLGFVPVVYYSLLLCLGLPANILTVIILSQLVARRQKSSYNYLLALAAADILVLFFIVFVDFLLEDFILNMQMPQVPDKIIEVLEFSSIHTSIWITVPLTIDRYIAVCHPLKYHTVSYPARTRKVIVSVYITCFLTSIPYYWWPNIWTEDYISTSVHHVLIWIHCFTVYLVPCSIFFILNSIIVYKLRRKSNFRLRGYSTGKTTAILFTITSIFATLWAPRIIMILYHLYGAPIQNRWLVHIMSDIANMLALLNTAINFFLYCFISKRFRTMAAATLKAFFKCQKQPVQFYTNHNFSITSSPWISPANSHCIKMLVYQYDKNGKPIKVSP
Summary of the method: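 Antagonist mode: 800 nM (EC80) reference agonist Lundbeck Cmp 1a added following 20 min pre-incubation with 10 µM compound. GPR139-CHOk1 cells, Fluo-4 dye, probenecid-containing HEPES buffer pH 7.4; intracellular Ca2+ measured at 37 °C (ex 485, em 525 nm).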

GPR139 [2] = molecular target: T1, GPR139; assay: Inositol monophosphate (IP1) accumulation assay, GPR139-CHOk1; type: cell-based; conditions: for EC50: read-out: pEC50 IP1 (converted)

Cc1noc(CNC(=O)C2(C)CCCCN2C(=O)c2ccccc2)n1 (stereo not drawn) [Compound 4, CC1=NOC(CNC(=O)C2(C)CCCCN2C(=O)C=3C=CC=CC3)=N1]
Ca2+ signal (% of Cmp 1a) (GPR139 [1]; individual replicates (Supplementary Figure 1)): 35.6047 % of Cmp 1a and 34.6013 % of Cmp 1a and 39.6569 % of Cmp 1a
IP1 response (% of Cmp 1a) (GPR139 [2]; log [Compound] M -4.5, replicate experiments): 109 % of Cmp 1a and 91 % of Cmp 1a and 86 % of Cmp 1a
IP1 response (% of Cmp 1a) (GPR139 [2]; log [Compound] M -5.0, replicate experiments): 40 % of Cmp 1a and 36 % of Cmp 1a and 37 % of Cmp 1a
IP1 response (% of Cmp 1a) (GPR139 [2]; log [Compound] M -5.5, replicate experiments): 13 % of Cmp 1a and 11 % of Cmp 1a and 14 % of Cmp 1a
IP1 response (% of Cmp 1a) (GPR139 [2]; log [Compound] M -6.0, replicate experiments): 6.46 % of Cmp 1a and 2.74 % of Cmp 1a and 2.36 % of Cmp 1a
IP1 response (% of Cmp 1a) (GPR139 [2]; log [Compound] M -6.5, replicate experiments): -0.931 % of Cmp 1a and -1.18 % of Cmp 1a and 0.0496 % of Cmp 1a
IP1 response (% of Cmp 1a) (GPR139 [2]; log [Compound] M -7.0, replicate experiments): 3.23 % of Cmp 1a and -0.893 % of Cmp 1a and -2.41 % of Cmp 1a
IP1 response (% of Cmp 1a) (GPR139 [2]; log [Compound] M -7.5, replicate experiments): 2.42 % of Cmp 1a and -4 % of Cmp 1a and -2.57 % of Cmp 1a
IP1 response (% of Cmp 1a) (GPR139 [2]; log [Compound] M -8.0, replicate experiments): 1.1 % of Cmp 1a and -0.196 % of Cmp 1a and -1.07 % of Cmp 1a
EC50 (GPR139 [2]): 12.6 µM

Cc1nocc1-c1nc(CC(=O)NC(C)c2ccccc2)no1 (stereo not drawn) [Compound 1.5, CC(C1=CC=CC=C1)NC(CC2=NOC(C3=CON=C3C)=N2)=O]
Ca2+ signal (% of Cmp 1a) (GPR139 [1]; individual replicates (Supplementary Figure 4)): 3.33 % of Cmp 1a and -5.33 % of Cmp 1a and -2.33 % of Cmp 1a
EC50 (GPR139 [2]; Supplementary Table 2, mean ± SEM): 0.501 µM
Emax (GPR139 [2]; Supplementary Table 2, normalized to Lundbeck Cmp 1a, read-out: Emax (%) IP1): 102 ± 15%
IP1 response (% of Cmp 1a) (GPR139 [2]; log [compound] M -4.5, individual replicates): 120 % of Cmp 1a and 99 % of Cmp 1a and 50 % of Cmp 1a and 106 % of Cmp 1a
IP1 response (% of Cmp 1a) (GPR139 [2]; log [compound] M -5.0, individual replicates): 127 % of Cmp 1a and 79 % of Cmp 1a and 71 % of Cmp 1a and 109 % of Cmp 1a
IP1 response (% of Cmp 1a) (GPR139 [2]; log [compound] M -5.5, individual replicates): 103 % of Cmp 1a and 63 % of Cmp 1a and 65 % of Cmp 1a and 87 % of Cmp 1a
IP1 response (% of Cmp 1a) (GPR139 [2]; log [compound] M -6.0, individual replicates): 75 % of Cmp 1a and 61 % of Cmp 1a and 56 % of Cmp 1a and 68 % of Cmp 1a
IP1 response (% of Cmp 1a) (GPR139 [2]; log [compound] M -6.5, individual replicates): 59 % of Cmp 1a and 41 % of Cmp 1a and 29 % of Cmp 1a and 43 % of Cmp 1a
IP1 response (% of Cmp 1a) (GPR139 [2]; log [compound] M -7.0, individual replicates): 26 % of Cmp 1a and 25 % of Cmp 1a and 8 % of Cmp 1a and 18 % of Cmp 1a
IP1 response (% of Cmp 1a) (GPR139 [2]; log [compound] M -7.5, individual replicates): 22 % of Cmp 1a and 7 % of Cmp 1a and 0.699 % of Cmp 1a and 13 % of Cmp 1a
IP1 response (% of Cmp 1a) (GPR139 [2]; log [compound] M -8.0, individual replicates): 12 % of Cmp 1a and -12 % of Cmp 1a and -8.56 % of Cmp 1a and 4.3 % of Cmp 1a
